How the values were obtained:
[1] = tested on: SCC9 (OSCC cell); test: MTT cell viability assay (cytotoxicity), SCC9; format: cell-based, human
Experimental: (§1) Cells and reagents. Human SCC-4, SCC-9, and SCC-25 cells, derived from a human oral tongue SCC (squamous cell carcinoma) were obtained from the ATCC (CRL-1624, CRL-1629, and CRL-1628, respectively) and maintained in 1:1 DMEM/F12 (Dulbecco’s modified Eagle medium and Ham’s F12 medium; Gibco (Thermo Fisher, Waltham, MA, USA)) supplemented with 10% (v/v) FBS (fetal bovine serum; Invitrogen, Thermo Fisher, Waltham, MA, USA) and 400 ng/mL hydrocortisone (Sigma-Aldrich Co., St. Louis, MO, USA). Primary normal human gingival fibroblasts were obtained from the ATCC (PCS-201-018) and maintained in DMEM supplemented with 10% (v/v) FBS and were used in a maximum of six passages. The cells were grown in a humidified environment containing 5% CO2 at 37 °C. […] Carboplatin stock was prepared in water (Fauldcarbo®; LibbsFarmacêutica, São Paulo, SP, Brazil) and was used as a standard anticancer compound.
(§2) Cell viability assay (cytotoxicity) and compound stability assay. The viability of SCC cell lines and primary human fibroblast cells was evaluated using the MTT assay as in [48]. Briefly, the cells were grown in triplicates in 96-well plates (5 × 10^3 cells/well) until confluence. Then, the medium was removed, fresh medium was added, and the cells were returned to the incubator in the presence of different compounds. DMSO at the same concentrations was used as a 100% cell viability control. After 48 h, the cells were incubated with 5 mg/mL MTT reagent (3-(4,5-dimethyl-2-thiazolyl)-2,5-diphenyl-2-H-tetrazolium bromide) (Sigma-Aldrich Co., St. Louis, MO, USA) for 3.5 h. After that, formazan crystals were dissolved in MTT solvent solution (DMSO/methanol 1:1 v/v) and the absorbance at 560 nm was evaluated using an EPOCH microplate spectrophotometer (BioTek Instruments, Winooski, VT, USA) with the background absorbance at 670 nm subtracted.
(§3) Statistical analysis, IC50 calculation. The data are presented as means ±\SD. IC50 values for the MTT assays were obtained by nonlinear regression using the […] 5.0 program (Intuitive Software for Science, San Diego, CA, USA) from at least three independent experiments. A dose–response (inhibitor) vs. response curve using the least squares method was used to determine the IC50, SD, and R^2 of the data. The selectivity index was calculated as SI = IC50 of the compound in normal oral fibroblast cells/IC50 of the same compound for each oral cancer cell line (SCC-4, SCC-9, and SCC-25) and the mean was calculated when indicated.

[2] = tested on: SCC9 cells; test: Time-lapse video microscopy; format: cell-based, human; details: SCC9, 2 × IC50, 72 h time-lapse
Experimental: Video microscopy. […] For 72 h, phase-contrast images of the same field were captured every minute using a Hamamatsu C2400 CCD camera (Hamamatsu, Japan). The images of each experimental condition were integrated into videos using ImageJ software (National Institute of Health, Bethesda, MD, USA), and different times (indicated) were selected according to the morphological change observed during the treatment.

[3] = tested on: SCC9 cells; test: Phosphatidylserine exposure analysis (Annexin V/PI); format: cell-based, human; details: SCC9, 48 h
Experimental: Phosphatidylserine exposure analysis (apoptosis). Cells of the SCC9 cell line were plated in 6-well plates (5 × 10^5 cells/well), trypsinized 48 h after treatment, labeled using the Annexin V-FITC Apoptosis Detection Kit according to the manufacturer’s protocol (#BMS500FI/300, Invitrogen), and analyzed by FACScalibur flow cytometry as in [50]. Furthermore, 5 × 10^4 SCC9 cells were plated in a 24-well plate containing 1 mL of DMEM/F12 with 10% FBS per well. CellEvent™ Caspase-3/7 Reagent (#R37111, Invitrogen) was diluted in a culture medium according to the manufacturer’s instructions. […] The cells were analyzed by flow cytometry at the time of 48 h of treatment.

[4] = Hemolysis assay; format: cell-based; details: human, human erythrocytes, relative to triton x-100 = 100% lysis
Experimental: Hemolysis assay. To determine the surfactant power of substances in biological membranes, a hemolysis assay was performed using human blood approved by the Research Ethics Committee of Universidade Federal Fluminense (CAAE: 43134721.4.0000.5626). Erythrocytes were collected for centrifugation at 1500 rpm for 15 min, washed with PBS (phosphate-buffered saline) supplemented with 10 mM glucose, and counted in an automatic cell counter (Thermo Fisher, Waltham, MA, USA). Erythrocytes were then plated in 96-well plates at a concentration of 4 × 10^8 cells/well in triplicates, and 10 µL of compounds was added at a final concentration of 300 µM in PBS with glucose (final volume 100 µL). In total, 10 µL of PBS was used as a negative control and 10 µL of PBS with 0.1% Triton ×100 as a positive control. Data reading was performed with EPOCH (BioTek Instruments, Winooski, VT, USA) at an absorbance of 540 nm, and the statistical data were generated using the […] Prism 5.0 program (Intuitive Software for Science, San Diego, CA, USA).

[5] = tested on: SCC25 OSCC cell line; test: MTT cell viability assay (cytotoxicity), SCC25; format: cell-based, human
Experimental: as §1, §2, §3

[6] = tested on: SCC9-LC3-GFP cells; test: Autophagy assay (LC3-GFP puncta); format: cell-based, human; details: 4e 2 × IC50, 48 h; CPP 20% (v/v) 4–6 h
Experimental: Autophagy assay. To determine if compound 4e induces autophagy, SCC9 cells were stably transduced with LC3-GFP expressing plasmid. For the generation of SCC9 cell lines harboring LC3-GFP, HEK293FT cells were transfected with 3 µg of each helper plasmids (pMDLglpRRE, pHCMV g, and pRSVrev) and 8 µg of the pLV-CMV-SV40-Puro-GFP-LC3 using calcium phosphate and 25 µM chloroquine. Twenty-four hours later, a lentivirus-containing medium was harvested, supplemented with 8 µg/mL of Polybrene, and used to transduce SCC9 cells. Twenty-four hours later, the transduced cells were selected with 5 µg/mL of Puromycin for 7 days. The cells were then cultured with 2.5 µg/mL Puromycin for further experiments. The lentiviral construct encoding pLV-CMV-SV40-Puro-GFP-LC3 was a gift from Dr. SilvyaStuchi Maria Engler. […] As a positive control, calcium phosphate precipitates (CPP) were prepared by adding CaCl2 dropwise to Na2HPO4 (in Hepes, pH 7.05) as previously described. CPP 20% (v/v) was administrated to the cells 4–6 h before analysis.

CC1(C)CC(=O)C2=C(C1)NC1=C(C(=O)c3ccccc3C1=O)C2c1ccc(Cl)cc1Cl (centres unmarked) [4e, 12-(2,4-dichlorophenyl)-3,3-dimethyl-3,4-dihydrobenzo[b]acridine-1,6,11(2H,5H,12H)-trione]
IC50 ([1]; Homo sapiens, SCC-9, SCC9, 48 h, MTT (Table 1), read-out: SCC9—Oral Cancer IC50): 14.7 µM | SCC9 S.I. ([1]; IC50 normal oral fibroblasts / IC50 SCC9): 6.0 | cell morphology [2]: formation of membrane blebs at early times, between 16 and 48 h, followed by cells shrinkage | Annexin V and Annexin V + PI staining [3]: increased single (Annexin V) and double (Annexin V + PI) staining | hemolysis at 300 µM [4]: < 3% | IC50 ([5]; Homo sapiens, SCC-25, SCC25, 48 h, MTT, read-out: Oral Tumor Cells SCC25 IC50): 21.5 µM | SCC25 S.I. ([5]; IC50 normal oral fibroblasts / IC50 SCC25): 4.1 | LC3-GFP puncta formation (autophagy) [6]: neither DMSO nor 4e were able to induce this cell death process
